Like-named read-outs stand apart in the source and are kept apart here. Ends that are not written are not given here. Where only a bound is given, the exact number is not on record here.

Consider 15 molecules from patent US8846619B2, “Artificial oxygen transport protein” (The Trustees of the University of Pennsylvania, priority 2009, dated 2014).

For data set [1] the following is noted: literature value, cited from earlier work.
For data set [2] the following is noted: literature value, cited from earlier work. The source holds these as a separate data set.
A short description of data set [3]: Heme binding to the constructs. As to conditions: two-heme variants, read-out: heme binding affinities.
The nature of data set [4]: O2 binding kinetics and oxy-ferrous heme formation/stability (stopped-flow; low-temperature CO/O2 ligand exchange). To be noted: for O2 binding / oxy-ferrous heme formation (in words): reduced (ferrous) heme protein with O2; for oxy-ferrous heme yield: −15° C., exposed to CO, then illuminated to exchange ligand for O2; for stabilization of the oxy-ferrous heme: effect of loop configuration. As for the experimental part:
(§1) Predominantly mono-exponential binding kinetics of O2 and CO with the ferrous heme B in Construct 6 were followed spectroscopically in rapid stopped-flow mixing over gas concentrations from 2% to 50% saturation at 15° C. using an Olis RSM 1000 spectrometer (Bogart, Ga.) that scans both the alpha band and Soret band absorptions 1,000 times a second, followed by SVD analysis of the kinetic components. The dissociation rate of the CO complex was determined by competition with ferricyanide using a range of ferricyanide concentrations according to the ferric heme trapping method described previously.
Preparations of ferrous heme synthetic proteins in CO saturated 30% ethylene glycol borate buffer at pH 9.0 were stable to ligand exchange on a timescale of several minutes in the dark at −15° C. This allowed spectra such as those shown in FIG. 2 to be prepared by re-equilibration with O2 or O2/CO gas mixtures, followed by photolysis by halogen lamp illumination for several seconds to initiate rapid O2 binding, as described previously.
In fact, none of the artificial hemes proteins examined above were able to bind this gas stably at room temperature. […] Constructs 2, 3, 4 and 5 all include the glutamate-based helical strain, which weakens the histidine ligation and allows competition from other ligands. By first exposing these heme proteins to CO and then illuminating at a low temperature to initiate ligand exchange for O2, as was done previously with cytochrome oxidase, each formed an oxy-ferrous heme at near 100% yield at −15° C. The probable reason for room temperature instability was the access of water and protons to the heme-binding site, which facilitates electron transfer from ferrous heme to oxygen. This is clear from mutant studies of globins and the relative stability of the oxy-ferrous heme in chemical systems in water-free solvents.

Data set [5] is described as follows: Hydrogen isotope (H/D) exchange protection by NMR. The format is physicochemical. As to conditions: pH 7 and 25° C. The text has this: To engineer water exclusion, the potentially culpable protein motion was constrained. […] Indeed, Construct 2 could be modified to introduce large-scale syn-anti flipping. To constrain motion, the loops were reconfigured to link the helices across the most mobile interface. This also allowed the loops to be linked into a monomeric “candelabra” structure, further constraining motion (Construct 6 in FIG. 1). NMR confirmed the water-restricting effects of loop reconfiguration and monomerization. Hydrogen isotope (H/D) analysis of hydrogen exchange protection factors of Constructs 4 and 6 at pH 7 and 25° C.

The conditions of data set [6]: literature value; cited from earlier work.
Data set [7] in a line: CO binding and release kinetics (stopped-flow mixing, flash photolysis, ferricyanide competition). As to conditions: stopped-flow with CO. As for the experimental part: as §1
CO rebinding after photolysis by a frequency-doubled YAG laser at 532 nm, with a ˜1-ns pulse width (FIG. 3C), was multi-exponential, a characteristic signature of human neuroglobins. Detailed analysis of time-resolved spectra in the flash experiments was consistent with a rapid exponential phase due to a change in pentacoordinate heme conformation (FIG. 3B), similar to that reported for myoglobin [46]. […]
Saturation of the observed CO binding rate allowed estimates of the opening and closing rates. […] Table 1 presents the kinetic constants (also shown in FIG. 3A) and equilibrium binding constants that have been determined for Construct 6 and contrasts them with several natural oxygen-binding proteins. […]

The nature of data set [8]: Potentiometric titration (oxidation-reduction midpoint potential). The format is physicochemical.
The conditions of data set [9]: heme B, cited from earlier work.
Where [10] appears, read: not in parentheses, read-out: KdCO.
[11] abbreviates: not in parentheses, read-out: KdO2.

In the case of Ascaris haemoglobin, in data set [1], the kCO off is 0.018 s⁻¹. Also, in data set [1] (not in parentheses), the kCO on was 200000 M⁻¹ s⁻¹. In addition, in data set [1] (setting [10]), the Kd was 90 nM. Further, in data set [2], the kO2 off is 0.004 s⁻¹. Also, in data set [2] (not in parentheses), the KdO2/KdCO was 0.03 and the kO2 on was 1.5e+06 M⁻¹ s⁻¹. Further, the Kd in data set [2] (setting [11]) is 3 nM.

As to “CGGGEIWKQFEEALKKLFAFFFILPFIIMAIAMVHLLFLFGEGL [Construct 15, AP6 with histidines at positions 10 and 21 mutated to phenylalanine]”, the figures for the Kd in data set [3] (tighter site) and in [3] (weaker site) were 100 nM and 4500 nM, respectively.

Regarding “CGGGEIWKQFEEALKKLFAFHFILPFIIMAIAMVFLLFLFGEGL [Construct 14, AP6 with histidines at positions 10 and 35 mutated to phenylalanine]”, the results for the Kd in data set [3] (tighter site) and in data set [3] (weaker site) were 200 to 500 nM and 1000 to 3000 nM, respectively.

For the molecule “CGGGEIWKQHEEALKKLFAFFFILPFIIMAIAMVFLLFLFGEGL [Construct 13]”, in data set [4], the “O2 binding / oxy-ferrous heme formation (in words)” value is recorded as “able to bind O2”. Further, the Kd is 50 to 200 nM in data set [3] (tighter site) and 1000 to 4000 nM in data set [3] (weaker site).

For the molecule “Construct 2: cystine derivative of SEQ ID NO:6 (CGGGELWKLHEELLKKFEELLKLHEERLKKL; also: cystine derivative)”, in data set [4], the “O2 binding / oxy-ferrous heme formation (in words)” value was “proceeded directly and rapidly to the oxidized form”; the oxy-ferrous heme yield was about 100%.

Regarding “Construct 3: cystine derivative of SEQ ID NO:7 (CGGGEIWKLHEEFLKKFEELLKLHEERLKKL; also: cystine derivative)”, the oxy-ferrous heme yield in data set [4] is recorded as about 100%.

Regarding “Construct 4: cystine derivative of SEQ ID NO:8 (CGGGEIWKQHEEALKKFEEALKQFEELKKL; also: cystine derivative)”, in [4], the oxy-ferrous heme yield is on record as about 100%. Further, the “time to complete water-mediated proton exchange” value in data set [5] is given as at most 15 min.

In the case of “Construct 5: cystine derivative of SEQ ID NO:9 (CGGGEIWKQHEDALQKFEDALNQFEELKQL; also: cystine derivative)”, in data set [4], the “stabilization of the oxy-ferrous heme” value was “not to be stabilized” and the oxy-ferrous heme yield is on record as about 100%.

For Human haemoglobin, in [1], the kCO off is 0.009 s⁻¹. Besides, in [1] (not in parentheses), the kCO on is 2.2e+06 M⁻¹ s⁻¹. Also, the Kd in data set [1] (setting [10]) is 4 nM; in data set [2] (setting [11]), 770 nM. Moreover, the kO2 off in data set [2] was 15 s⁻¹. Besides, in [2] (not in parentheses), the KdO2/KdCO is 190. Moreover, in [2] (not in parentheses), the kO2 on was 1.9e+07 M⁻¹ s⁻¹.

In the case of Micro-peroxidase, in data set [1], the kCO off is 0.01 s⁻¹. Moreover, the kCO on in data set [1] (not in parentheses) was 2e+07 M⁻¹ s⁻¹. In addition, in [1] (setting [10]), the Kd is 0.5 nM.

With Myoglobin, in data set [1], the kCO off is 0.019 s⁻¹. Besides, in data set [1] (not in parentheses), the kCO on was 500000 M⁻¹ s⁻¹. The Kd in data set [1] (setting [10]) was 37 nM; in [2] (setting [11]) it was 860 nM. Further, the kO2 off in data set [2] was 12 s⁻¹. The KdO2/KdCO in [2] (not in parentheses) is listed as 23. The kO2 on in [2] (not in parentheses) was 1.4e+07 M⁻¹ s⁻¹.

B1: Neuroglobin (protein, UniProt Q9NPG2 1-151, looked up)
Neuroglobin: MERPEPELIRQSWRAVSRSPLEHGTVLFARLFALEPDLLPLFQYNCRQFSSPEDCLSSPEFLDHIRKVMLVIDAAVTNVEDLSSLEEYLASLGRKHRAVGVKLSSFSTVGESLLYMLEKCLGPAFTPATRAAWSQLYGAVVQAMSRGWDGE
Consider B1, for which the kCO off in data set [1] was 0.014 s⁻¹. In data set [1] (in parentheses: apparent), the “kCO on (apparent)” value is on record as “(0.15) μM^−1s^−1”. The Kd was 93 nM in data set [1] (in parentheses: apparent, read-out: KdCO (apparent)); 0.21 nM in [1] (setting [10]); 1400 nM in data set [2] (in parentheses: apparent, read-out: KdO2 (apparent)); 3.2 nM in [2] (setting [11]). The kCO on in data set [1] (not in parentheses) is 6.5e+07 M⁻¹ s⁻¹. In data set [2], the kO2 off was 0.8 s⁻¹. The “KdO2/KdCO (apparent)” value in data set [2] (in parentheses: apparent) is reported as “(15)”. For the same molecule, in [2] (in parentheses: apparent), the “kO2 on (apparent)” value was “(0.56) μM^−1s^−1”. Further, the kO2 on in data set [2] (not in parentheses) was 2.5e+08 M⁻¹ s⁻¹. Besides, in data set [6], the kHis off was 4.5 s⁻¹. Besides, in [6], the kHis on is recorded as 2,000 s^−1.

B2: Construct 6: cystine derivative of SEQ ID NO:1; four-helix bundle oxygen transport protein (protein)
chain: GEIWKQHEDALQKFEEALNQFEDLKQLGGSGCGSGGEIWKQHEDALQKFEEALNQFEDLKQL
modifications: cystine derivative
notes: four-helix bundle oxygen transport protein
On to B2, for which, in data set [7], the “half time of carboxy-ferrous heme formation” value stood at 400 ms and the “stability of carboxy-ferrous heme species” value was “indefinitely stable”. In [4], the “O2 on-rate compared with human neuroglobin” value is listed as about 100 times slower, the “net discrimination favoring O2 binding over CO binding” value is recorded as “tenfold”, the “stabilization of the oxy-ferrous heme” value is “stabilized by looping together helices not linked by heme” and the “O2 binding / oxy-ferrous heme formation (in words)” value was “transformation of the reduced heme to the oxy-ferrous state”. In [4] (heme A), the “persistence of oxy-ferrous heme A before electron transfer” value was “about half a minute”. Besides, the “duration of stability of the oxy-ferrous state” value in data set [4] (heme B, before electron transfer from ferrous heme to O2) was “tens of seconds”. In addition, the “oxidation-reduction midpoint potential at pH 8 (Em8)” value in data set [8] (bound heme A, pH 8, versus normal hydrogen electrode (NHE)) is −100 mV. For the same molecule, the “Em8 of bound heme A more positive than heme B” value in data set [8] (heme A versus heme B) was “about 200 mV”. Further, in [5], the “timescale of exchange of core residue backbone amides” value is given as “several hours”. Besides, the Kd in [9] (first heme, read-out: dissociation constant (Kd) for binding of the first heme) was under 1 nM. Also, in [9] (second heme, read-out: dissociation constant (Kd) for binding of the second heme), the Kd is 50 nM.

B3: Construct 7: SEQ ID NO:11; single chain four-helix bundle peptide (protein)
chain: GMTPEQIWKQHEDALQKFEDALNQFEELKQLGGSGSGSGGEIWKQHEDALQKFEDALNQFEELKQLGGSGGSGGSGGEIWKQHEDALQKFEDALNQFEELKQLGGSGSGSGGEIWKQHEDALQKFEDALNQFEELKQL
With B3, the “O2 binding / oxy-ferrous heme formation (in words)” value in [4] was “retained the O2 binding functionality of Construct 6”.

B4: Construct 10: SEQ ID NO:14; single chain four-helix bundle with CXXCH insert, covalently bound heme C (protein)
chain: GMTPEQIWKQHEDALQKFEDALNQFEELKQLGGSGSGSGGEICKCHEDALQKFEDALNQFEELKQLGGSGGSGGSGGEIWKQHEDALQKFEDALNQFEELKQLGGSGSGSGGEIWKQHEDALQKFEDALNQFEELKQL
modifications: covalently bound heme C
Take B4: the “O2 binding / oxy-ferrous heme formation (in words)” value in data set [4] was “bound molecular oxygen”. The “Em (midpoint potential)” value in data set [8] (covalently bound c-type heme, pH 9) was −232 mV.
